# Source: BindingDB's records for doi:10.1016/S0960-894X(96)00483-0 (1996)
# Molecular target: Kynureninase (Pseudomonas fluorescens) (UniProt P83788)
# Assay: Compound was evaluated for its binding affinity against kynureninase isolated from Pseudomonas fluorescence
# Chain of Kynureninase (Pseudomonas fluorescens) (P83788 whole entry, looked up): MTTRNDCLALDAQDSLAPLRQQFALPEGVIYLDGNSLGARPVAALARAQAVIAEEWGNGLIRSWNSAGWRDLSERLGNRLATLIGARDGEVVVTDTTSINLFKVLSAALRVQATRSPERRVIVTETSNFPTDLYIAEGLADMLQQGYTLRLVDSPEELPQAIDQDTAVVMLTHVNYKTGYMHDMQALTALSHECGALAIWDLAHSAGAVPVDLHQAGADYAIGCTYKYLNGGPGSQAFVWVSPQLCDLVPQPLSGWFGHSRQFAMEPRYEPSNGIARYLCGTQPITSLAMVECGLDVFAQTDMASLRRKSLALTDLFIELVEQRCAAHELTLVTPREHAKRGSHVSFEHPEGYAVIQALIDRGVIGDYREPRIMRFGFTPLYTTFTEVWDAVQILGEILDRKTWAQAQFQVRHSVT
row,Ki [µM],SMILES
1,4.28,Nc1ccccc1C(=O)C[C@H](N)C(=O)O [2-ammonio-4-(2-ammoniophenyl)-4-oxo-(2S)-butanoate]
2,23.4,N[C@@H](CC(=O)c1ccccc1)C(=O)O [2-ammonio-4-oxo-4-phenyl-(2S)-butanoate]
3,8.8,COC(=O)[C@H](CP(=O)(OC)c1ccccc1)NC(=O)OCc1ccccc1 (stereo partly drawn) [(R)-2-Benzyloxycarbonylamino-3-(methoxy-phenyl-phosphinoyl)-propionic acid methyl ester]
4,880,COP(=O)(C[C@H](NC(=O)OCc1ccccc1)C(=O)O)c1ccccc1 (stereo partly drawn) [(R)-2-Benzyloxycarbonylamino-3-(methoxy-phenyl-phosphinoyl)-propionic acid]
